According to patent US7488799B2, “Prostaglandin receptor protein” (Aventis Pharmaceuticals Inc., priority 2003, dated 2009):

Experiments:
mouse DP receptor [1] = target: T1, mouse DP receptor (Mus musculus, UniProt P70263); test: Intracellular calcium assay (FLIPR), mouse DP receptor in HEK293-Gα16 cells; format: cell-based; details: mouse DP-expressing HEK293-Gα16 cells, FIG. 6, read-out: EC50, intracellular calcium mobilization
T1 construct: A full length cDNA for the mouse DP receptor was obtained by PCR; expressed in transfected cells
T1 sequence (P70263 1-357): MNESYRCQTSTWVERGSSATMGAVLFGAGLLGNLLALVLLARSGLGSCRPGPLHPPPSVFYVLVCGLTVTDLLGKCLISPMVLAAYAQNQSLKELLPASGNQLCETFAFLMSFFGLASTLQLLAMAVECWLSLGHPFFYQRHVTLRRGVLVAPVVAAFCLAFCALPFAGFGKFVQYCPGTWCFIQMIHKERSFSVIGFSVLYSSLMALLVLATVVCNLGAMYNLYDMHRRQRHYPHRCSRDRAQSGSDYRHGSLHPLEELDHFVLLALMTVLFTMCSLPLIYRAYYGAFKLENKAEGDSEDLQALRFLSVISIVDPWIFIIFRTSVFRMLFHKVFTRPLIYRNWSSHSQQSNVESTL
Experimental: The pEAK10-gpDP and pEAK10-mDP vectors were transfected into the HEK293-Gα16 cell line using Lipofectamine 2000 (Gibco) as described by the manufacturer. Transfected cells were cultured under selection with 1 ug/ml puromycin and 250 ug/ml zeocin for 5 weeks. Expression of the DP receptor was monitored in the transfected cell population by measuring the release of intracellular calcium in response to PGD2 stimulation.
For functional characterization the newly cloned guinea pig DP receptor was stably transfected into HEK293-Gα16 cells and for comparison an equivalent cell line was generated with the mouse DP receptor. Both DP receptor-expressing cell lines, as well as the parental cell line not expressing any transfected DP receptor, were evaluated in a second messenger assay using the force coupling of the receptor to Gα16 to elicit a calcium response. Intracellular calcium measurements were performed using non-transfected HEK293-Gα16 cells or cells transfected with either the pEAK10-gpDP or the pEAK10-mDP expression vectors. Transfected and non-transfected cells were plated in 384 well plates at 10,000 cells per well. Cells were washed three times with calcium assay buffer. […] Intracellular calcium was measured following PGD2 or buffer stimulation of […] loaded cells using a FLIPR instrument (Molecular Devices Corp.).

[2] = test system: parental HEK293-Gα16 cell line; test: Intracellular calcium assay (FLIPR), parental cell line without transfected DP receptor; format: cell-based; details: parental HEK293-Gα16 cells, no transfected DP receptor
Excerpt: The cDNA encoding human Gα16 was cloned as described (Amatruda et al., 1991). Briefly, total RNA from HL-60 human promyelocytic leukemia cells was isolated and used as a template for PCR-mediated synthesis of cDNA encoding Gα16. The resulting PCR product was cloned into the expression vector pHook-3 (Invitrogen), which also coexpresses a single-chain antibody (sFv) to allow convenient enrichment of transfected cells using a panning protocol with hapten-coated magnetobeads (Chesnut et al., 1996). HEK293 cells were transfected with the constructed plasmid (pGα16), selected with Zeocin and positive clones enriched using magnetobeads according to protocols supplied by the vendor. […]
For functional characterization the newly cloned guinea pig DP receptor was stably transfected into HEK293-Gα16 cells and for comparison an equivalent cell line was generated with the mouse DP receptor. Both DP receptor-expressing cell lines, as well as the parental cell line not expressing any transfected DP receptor, were evaluated in a second messenger assay using the force coupling of the receptor to Gα16 to elicit a calcium response. […] Intracellular calcium was measured following PGD2 or buffer stimulation of […] loaded cells using a FLIPR instrument (Molecular Devices Corp.).

[3] = test system: recombinant guinea pig DP receptor; test: SPA cAMP assay, guinea pig DP cell line; format: cell-based, guinea pig (Cavia porcellus); details: 15 minutes stimulation, FIG. 7, read-out: EC50, cAMP accumulation
Experimental: (§1) An additional functional characterization of the newly cloned guinea pig DP receptor used the natural signaling pathway for DP, the stimulation of cAMP production by adenylate cyclase. Transfected or non-transfected cells were plated at 40,000 cells per well of a 96 well plate. After overnight incubation at 37° C., medium was replaced and cells were stimulated with defined concentrations of PGD2 for 15 minutes. The accumulation of cAMP was measured in the stimulated cells using the cAMP SPA Direct Screening Assay System (Amersham) according to procedures specified by the manufacturer.

[4] = test system: parental HEK293-Gα16 cell line; test: SPA cAMP assay, parental cell line; format: cell-based; details: parental HEK293-Gα16 cells, 15 minutes stimulation
Experimental: as §1

[5] = test system: recombinant guinea pig DP receptor; test: Intracellular calcium assay (FLIPR), guinea pig DP receptor in HEK293-Gα16 cells; format: cell-based, guinea pig (Cavia porcellus); details: guinea pig DP-expressing HEK293-Gα16 cells, FIG. 6, read-out: EC50, intracellular calcium mobilization
Experimental: For functional characterization the newly cloned guinea pig DP receptor was stably transfected into HEK293-Gα16 cells and for comparison an equivalent cell line was generated with the mouse DP receptor. Both DP receptor-expressing cell lines, as well as the parental cell line not expressing any transfected DP receptor, were evaluated in a second messenger assay using the force coupling of the receptor to Gα16 to elicit a calcium response. Intracellular calcium measurements were performed using non-transfected HEK293-Gα16 cells or cells transfected with either the pEAK10-gpDP or the pEAK10-mDP expression vectors. Transfected and non-transfected cells were plated in 384 well plates at 10,000 cells per well. Cells were washed three times with calcium assay buffer. Cells were then incubated with 4 μM of the calcium loading dye Fura-4/AM (Molecular Probes) at 37° C. for x min. Unincorporated fura-4/AM was removed by three further washes with calcium assay buffer. Intracellular calcium was measured following PGD2 or buffer stimulation of Fura-4/AM loaded cells using a FLIPR instrument (Molecular Devices Corp.).

mouse DP receptor [6] = target: T1, mouse DP receptor; test: SPA cAMP assay, mouse DP cell line; format: cell-based; details: 15 minutes stimulation, FIG. 7, read-out: EC50, cAMP accumulation

`CCCCC[C@H](O)/C=C/[C@H]1C(=O)C[C@H](O)[C@@H]1C/C=C\CCCC(=O)O` [PGD2, Prostaglandin D2] was tested, and the EC50 (mouse DP receptor [1]) was 18 nM, the “PGD2 concentration at which a calcium response is seen” value [2] was “above 10 μM” and the EC50 [3] was 0.8 nM. The “intracellular cAMP response to stimulation” value [4] was “did not show an increase in intracellular cAMP”, the EC50 [5] was 1.4 nM and the EC50 (mouse DP receptor [6]) was 0.5 nM.
